± gives the standard deviation of the averaged measurements.
Experiments:
Assay in all cases: level (log10 ratio to DMSO vehicle control); higher = higher biomarker level / cell amount than vehicle control
[1] = compound: COC(=O)C(F)(F)C(F)(F)OC(F)(C(F)(F)F)C(F)(F)OC(F)=C(F)F [Methyl perfluoro(3-(1-ethenyloxypropan-2-yloxy)propanoate)]; conditions: in DMSO
Description: (§1)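 BioMAP Diversity Plus panel of 12 human primary cell co-culture systems (3C, 4H, LPS, SAg, BT, BF4T, BE3C, CASM3C, HDF3CGF, KF3CT, MyoF, Mphg). Compounds were added 1 h before stimulation and left for 24 h (MyoF 48 h; BT 72 h for soluble read-outs or 6 d for IgG). Biomarkers were read by ELISA, cytotoxicity by SRB, PBMC viability and proliferation by Alamar Blue. Each well value was divided by the mean of 8 DMSO control wells on the same plate and log10 transformed; duplicate blinded samples were tested at 4 concentrations.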

[2] = compound: O=C(O)C=CC(F)(C(F)(F)F)C(F)(F)F [3-(Perfluoroisopropyl)-2-propenoic acid]; conditions: in DMSO
Description: as §1

[3] = compound: FC(F)(F)C(F)(F)C(F)(F)CC1CO1 [1H,1H-Heptafluorobutyl epoxide]; conditions: in DMSO
Description: as §1

[4] = compound: C=C(C)C(=O)OCCC(F)(F)C(F)(F)C(F)(F)C(F)(F)C(F)(F)C(F)(F)F [6:2 Fluorotelomer methacrylate]; conditions: in DMSO
Description: as §1

[5] = compound: FC(F)(F)C(F)(F)C(F)(F)C(F)(F)C(F)(F)C(F)(F)C(F)(F)I [1-Iodopentadecafluoroheptane]; conditions: in DMSO
Description: as §1

Octafluoroadipamide = compound: NC(=O)C(F)(F)C(F)(F)C(F)(F)C(F)(F)C(N)=O [Octafluoroadipamide]; conditions: in DMSO
Description: as §1

Heptafluorobutyl iodide = compound: FC(F)(F)C(F)(F)C(F)(F)CI [Heptafluorobutyl iodide]; conditions: in DMSO
Description: as §1

[6] = compound: C=CC(=O)OCC(F)(F)C(F)(F)C(F)(F)COC(=O)C=C [1H,1H,5H,5H-Perfluoro-1,5-pentanediol diacrylate]; conditions: 6700 nM; in DMSO
Description: as §1

Test System: BF4T:MMP-1
- level (log10) ([1]; 6700 nM): 0.0055 ± 0.019
- level (log10) ([1]; 20000 nM): 0.0095 ± 0.0021
- level (log10) ([2]; 6700 nM): -0.0055 ± 0.012
- level (log10) ([2]; 20000 nM): -0.0055 ± 0.0035
- level (log10) ([2]; 60000 nM): 0.017 ± 0.03
- level (log10) ([3]; 6700 nM): 0.014 ± 0.02
- level (log10) ([3]; 20000 nM): 0.009 ± 0.024
- level (log10) ([3]; 60000 nM): 0.019 ± 0.048
- level (log10) ([4]; 6700 nM): -0.0015 ± 0.005
- level (log10) ([4]; 20000 nM): 0.015 ± 0.011
- level (log10) ([4]; 60000 nM): 0.015 ± 0.013
- level (log10) ([5]; 6700 nM): -0.0055 ± 0.018
- level (log10) ([5]; 20000 nM): 0.0005 ± 0.0035
- level (log10) (Octafluoroadipamide; 6700 nM): -0.006 ± 0.0099
- level (log10) (Octafluoroadipamide; 20000 nM): -0.0095 ± 0.0021
- level (log10) (Octafluoroadipamide; 60000 nM): 0.004 ± 0.016
- level (log10) (Heptafluorobutyl iodide; 6700 nM): -0.005 ± 0.013
- level (log10) (Heptafluorobutyl iodide; 20000 nM): -0.0055 ± 0.0035
- level (log10) (Heptafluorobutyl iodide; 60000 nM): 0.0055 ± 0.012
- level (log10) [6]: 0.031 ± 0.016

Test System: BF4T:MMP-3
- level (log10) ([1]; 6700 nM): 0.0165 ± 0.018
- level (log10) ([1]; 20000 nM): 0.102 ± 0.021
- level (log10) ([2]; 6700 nM): -0.003 ± 0.014
- level (log10) ([2]; 20000 nM): -0.0035 ± 0.015
- level (log10) ([2]; 60000 nM): 0.0205 ± 0.033
- level (log10) ([3]; 6700 nM): 0.003 ± 0.0028
- level (log10) ([3]; 20000 nM): 0.0005 ± 0.0035
- level (log10) ([3]; 60000 nM): -0.008 ± 0.02
- level (log10) ([4]; 6700 nM): -0.001 ± 0.013
- level (log10) ([4]; 20000 nM): -0.0215 ± 0.028
- level (log10) ([4]; 60000 nM): 0.0055 ± 0.005
- level (log10) ([5]; 6700 nM): -0.0345 ± 0.039
- level (log10) ([5]; 20000 nM): -0.0315 ± 0.016
- level (log10) (Octafluoroadipamide; 6700 nM): -0.0145 ± 0.0078
- level (log10) (Octafluoroadipamide; 20000 nM): -0.0145 ± 0.015
- level (log10) (Octafluoroadipamide; 60000 nM): 0.003 ± 0.038
- level (log10) (Heptafluorobutyl iodide; 6700 nM): 0.0245 ± 0.036
- level (log10) (Heptafluorobutyl iodide; 20000 nM): -0.02 ± 0.0014
- level (log10) (Heptafluorobutyl iodide; 60000 nM): 0.026 ± 0.017
- level (log10) [6]: 0.056 ± 0.028

Test System: BF4T:MMP-9
- level (log10) ([1]; 6700 nM): -0.0175 ± 0.018
- level (log10) ([1]; 20000 nM): 0.0125 ± 0.069
- level (log10) ([2]; 6700 nM): 0.0015 ± 0.029
- level (log10) ([2]; 20000 nM): 0.004 ± 0.0099
- level (log10) ([2]; 60000 nM): 0.025 ± 0.04
- level (log10) ([3]; 6700 nM): 0.0005 ± 0.011
- level (log10) ([3]; 20000 nM): -0.0055 ± 0.022
- level (log10) ([3]; 60000 nM): -0.008 ± 0.0085
- level (log10) ([4]; 6700 nM): -0.0295 ± 0.096
- level (log10) ([4]; 20000 nM): -0.033 ± 0.028
- level (log10) ([4]; 60000 nM): -0.028 ± 0.062
- level (log10) ([5]; 6700 nM): -0.0345 ± 0.063
- level (log10) ([5]; 20000 nM): -0.019 ± 0.013
- level (log10) (Octafluoroadipamide; 6700 nM): -0.0245 ± 0.005
- level (log10) (Octafluoroadipamide; 20000 nM): -0.016 ± 0.016
- level (log10) (Octafluoroadipamide; 60000 nM): 0.0115 ± 0.046
- level (log10) (Heptafluorobutyl iodide; 6700 nM): -0.008 ± 0.0085
- level (log10) (Heptafluorobutyl iodide; 20000 nM): -0.018 ± 0.013
- level (log10) (Heptafluorobutyl iodide; 60000 nM): 0.0025 ± 0.03
- level (log10) [6]: -0.02 ± 0.021

Test System: BF4T:PAI-I
- level (log10) ([1]; 6700 nM): -0.016 ± 0.0085
- level (log10) ([1]; 20000 nM): -0.0175 ± 0.021
- level (log10) ([2]; 6700 nM): 0 ± 0.0099
- level (log10) ([2]; 20000 nM): 0.001 ± 0.0014
- level (log10) ([2]; 60000 nM): 0.0155 ± 0.026
- level (log10) ([3]; 6700 nM): -0.0035 ± 0.011
- level (log10) ([3]; 20000 nM): -0.007 ± 0.0057
- level (log10) ([3]; 60000 nM): -0.02 ± 0.0014
- level (log10) ([4]; 6700 nM): -0.0175 ± 0.011
- level (log10) ([4]; 20000 nM): -0.007 ± 0.0042
- level (log10) ([4]; 60000 nM): -0.0075 ± 0.0035
- level (log10) ([5]; 6700 nM): -0.004 ± 0.0085
- level (log10) ([5]; 20000 nM): -0.0235 ± 0.0092
- level (log10) (Octafluoroadipamide; 6700 nM): -0.0005 ± 0.0035
- level (log10) (Octafluoroadipamide; 20000 nM): -0.0035 ± 0.00071
- level (log10) (Octafluoroadipamide; 60000 nM): 0.015 ± 0.023
- level (log10) (Heptafluorobutyl iodide; 6700 nM): 0.0005 ± 0.0092
- level (log10) (Heptafluorobutyl iodide; 20000 nM): -0.002 ± 0.0042
- level (log10) (Heptafluorobutyl iodide; 60000 nM): 0.0065 ± 0.021
- level (log10) [6]: -0.0285 ± 0.00071

Test System: BF4T:SRB
- level (log10) ([1]; 6700 nM): -0.005 ± 0.016
- level (log10) ([1]; 20000 nM): 0.0035 ± 0.026
- level (log10) ([2]; 6700 nM): -0.008 ± 0.011
- level (log10) ([2]; 20000 nM): -0.008 ± 0.0099
- level (log10) ([2]; 60000 nM): 0.006 ± 0.018
- level (log10) ([3]; 6700 nM): -0.004 ± 0.0057
- level (log10) ([3]; 20000 nM): 0.0005 ± 0.005
- level (log10) ([3]; 60000 nM): 0.0025 ± 0.005
- level (log10) ([4]; 6700 nM): 0.002 ± 0.0071
- level (log10) ([4]; 20000 nM): -0.003 ± 0.0071
- level (log10) ([4]; 60000 nM): -0.0035 ± 0.012
- level (log10) ([5]; 6700 nM): -0.0085 ± 0.0092
- level (log10) ([5]; 20000 nM): -0.008 ± 0.0014
- level (log10) (Octafluoroadipamide; 6700 nM): -0.006 ± 0.0071
- level (log10) (Octafluoroadipamide; 20000 nM): -0.002 ± 0.0028
- level (log10) (Octafluoroadipamide; 60000 nM): 0.001 ± 0.0071
- level (log10) (Heptafluorobutyl iodide; 6700 nM): 0.001 ± 0.0028
- level (log10) (Heptafluorobutyl iodide; 20000 nM): -0.002 ± 0.0071
- level (log10) (Heptafluorobutyl iodide; 60000 nM): 0.0015 ± 0.0064
- level (log10) [6]: -0.005 ± 0.0042

Test System: BF4T:tPA
- level (log10) ([1]; 6700 nM): -0.053 ± 0.025
- level (log10) ([1]; 20000 nM): -0.046 ± 0.0028
- level (log10) ([2]; 6700 nM): -0.004 ± 0.037
- level (log10) ([2]; 20000 nM): -0.0055 ± 0.022
- level (log10) ([2]; 60000 nM): 0.03 ± 0.024
- level (log10) ([3]; 6700 nM): -0.012 ± 0.014
- level (log10) ([3]; 20000 nM): -0.0235 ± 0.018
- level (log10) ([3]; 60000 nM): -0.0065 ± 0.011
- level (log10) ([4]; 6700 nM): -0.0185 ± 0.016
- level (log10) ([4]; 20000 nM): -0.036 ± 0.038
- level (log10) ([4]; 60000 nM): -0.014 ± 0.047
- level (log10) ([5]; 6700 nM): 0.022 ± 0.025
- level (log10) ([5]; 20000 nM): -0.0085 ± 0.016
- level (log10) (Octafluoroadipamide; 6700 nM): -0.0475 ± 0.035
- level (log10) (Octafluoroadipamide; 20000 nM): -0.047 ± 0.045
- level (log10) (Octafluoroadipamide; 60000 nM): -0.023 ± 0.081
- level (log10) (Heptafluorobutyl iodide; 6700 nM): -0.016 ± 0.0042
- level (log10) (Heptafluorobutyl iodide; 20000 nM): -0.0235 ± 0.0078
- level (log10) (Heptafluorobutyl iodide; 60000 nM): -0.009 ± 0.05
- level (log10) [6]: -0.071 ± 0.014

Test System: BF4T:uPA
- level (log10) ([1]; 6700 nM): -0.0075 ± 0.0064
- level (log10) ([1]; 20000 nM): 0.02 ± 0.0028
- level (log10) ([2]; 6700 nM): -0.007 ± 0.016
- level (log10) ([2]; 20000 nM): -0.016 ± 0.0057
- level (log10) ([2]; 60000 nM): 0.0065 ± 0.018
- level (log10) ([3]; 6700 nM): -0.0065 ± 0.013
- level (log10) ([3]; 20000 nM): 0.0025 ± 0.022
- level (log10) ([3]; 60000 nM): -0.028 ± 0.034
- level (log10) ([4]; 6700 nM): -0.006 ± 0.0057
- level (log10) ([4]; 20000 nM): 0.0005 ± 0.026
- level (log10) ([4]; 60000 nM): 0.006 ± 0.011
- level (log10) ([5]; 6700 nM): -0.0365 ± 0.016
- level (log10) ([5]; 20000 nM): -0.026 ± 0.016
- level (log10) (Octafluoroadipamide; 6700 nM): -0.0405 ± 0.0092
- level (log10) (Octafluoroadipamide; 20000 nM): -0.0325 ± 0.021
- level (log10) (Octafluoroadipamide; 60000 nM): -0.0165 ± 0.026
- level (log10) (Heptafluorobutyl iodide; 6700 nM): -0.008 ± 0.014
- level (log10) (Heptafluorobutyl iodide; 20000 nM): -0.0095 ± 0.022
- level (log10) (Heptafluorobutyl iodide; 60000 nM): -0.0045 ± 0.016
- level (log10) [6]: -0.019 ± 0.013
